This data set in a line: gradient 5% acetonitrile 3 min, to 50% in 2 min, to 85% in 15 min, held 3 min, 100 µL/min. Particulars: column: Zorbax Extend-C18 2.1 x 50 mm; eluents: water / acetonitrile, 0.1% formic acid. An outline of the steps: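 Standards, all pure, were combined into mixtures of ~100 molecules and run at 100 μL/min on a Zorbax Extend-C18 column (2.1 × 50 mm, 1.8 μm) with water and acetonitrile, each containing 0.1% formic acid. A coupled quadrupole time-of-flight mass spectrometer operated in positive and negative ionization mode. Retention time values come from computationally picked adduct peaks, each inspected manually.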
Take `COc1ccc(-c2csc3c(=O)n(CC(C)C)cnc23)cc1`: the RP-LC retention time is 1020 s.
In the case of `CCC(=O)N1CCc2sc(C(=O)N3CCN(c4ccccn4)CC3)cc2C1` it was 582 s; in that of `CC(NC(=O)Cn1cc(C(=O)C(=O)N2CCCC2)c2ccccc21)c1ccc2c(c1)OCCCO2` (centres undefined), 815 s; in that of `O=S(=O)(c1ccc(Br)s1)N1CCCC1c1nc(-c2ccc(F)cc2)no1` (centres undefined), 1180 s.
In the case of `CCCCCn1c(=O)c2ccccc2n(Cc2nc(-c3ccc(C)cc3)no2)c1=O` it was 1350 s.
For `CCc1ccc(NC(=O)C2CCN(S(=O)(=O)c3cc(-c4noc(C5CC5)n4)cs3)CC2)cc1` the value was 1100 s; for `O=C(c1cnn2cccnc12)N1CCCC1c1ccc(Cl)cc1` (centres undefined), 766 s.
As to `CCCCNC(=O)C1CCN(C(=O)CCc2c(C)[nH]c(C(=O)OCC)c2C)CC1`, the RP-LC retention time stood at 748 s.
On to `Nc1nc(SCC(=O)NCC2CCCO2)n[nH]1` (centres undefined), for which the RP-LC retention time is 469 s.
Turning to `O=C(Cn1c(=O)c2cccn2c2ccccc21)NC1CC1`, the RP-LC retention time was 688 s.
The compound `CCOc1ccc(CNC(=O)COc2nc(C)nc3oc(C)c(C)c23)cc1` gave an RP-LC retention time of 892 s.
For `Cc1nc(-c2noc(-c3ccc(F)cc3)n2)cn1CC(=O)NC1CCc2ccccc21` (centres undefined) the value was 874 s; for `COc1ccc(N2CC(c3noc(-c4ccc(C)c(C)c4)n3)CC2=O)cc1OC` (centres undefined), 983 s.
For `O=C(Cn1c(=O)n(Cc2cccnc2)c(=O)c2ncccc21)c1ccc2c(c1)CCCC2` the value was 630 s.
For `O=C(Cn1cnc(-c2nc(-c3ccccc3)cs2)c1)Nc1cc(F)ccc1F`, the RP-LC retention time worked out at 825 s.
Compound `CCOC(=O)c1c(C)[nH]c(C(=O)N2CCC(CC(=O)NC3CC3)CC2)c1C` returned an RP-LC retention time of 654 s.
`Cc1nc2cc(-c3noc(C(C)Oc4cccc(Cl)c4)n3)ccc2n(C)c1=O` (centres undefined) displayed an RP-LC retention time of 1110 s.
As to `Cc1cccc(OCC(=O)Nc2ccc3c(c2)Sc2ncccc2C(=O)N3C)c1`, the RP-LC retention time amounted to 856 s.
Compound `O=C(NCCc1csc(C2CCCN(C(=O)C3CCCCC3)C2)n1)C1CC1` (centres undefined) returned an RP-LC retention time of 760 s.
In the case of `COc1ccc(CC(C)(O)CNC(=O)Nc2ccccc2OC)cc1` (centres undefined), the RP-LC retention time amounted to 750 s.
`CCN(Cc1ccccc1)C(=O)CSc1cc(N2CCN(c3ccc(OC)cc3)CC2)ncn1` had an RP-LC retention time of 964 s.
`COc1ccc(-c2nc(-c3cn(-c4ccc(F)cc4)nn3)no2)cc1OC`: the RP-LC retention time turned out to be 960 s.
For `CCCCN1C(=O)C2(NCCc3c2[nH]c2ccc(OC)cc32)c2cc(Br)ccc21` (centres undefined) the value was 763 s; for `Cc1cccc(-n2c(=O)c3c(cc(C)n3C)n(CC(=O)Nc3ccccc3)c2=O)c1`, 852 s.
For `CCS(=O)(=O)N1CC(=O)N(c2ccc(F)cc2)C(C)(C(=O)NCc2ccc(F)cc2)C1` (centres undefined) the value was 743 s.
In the case of `CCCc1c(C(=O)O)nnn1Cc1cccc(OC)c1` it was 738 s.
For the compound `CC1CCN(C(=O)c2nnc(-c3ccc(S(=O)(=O)N4CCC(C)CC4)cc3)o2)CC1`, the RP-LC retention time came out at 1120 s.
In the case of `NC(=O)c1cc[nH]c1C1CCCN(Cc2ccc(Br)o2)C1` (centres undefined) it was 594 s; in that of `COC(=O)c1ccc(NS(=O)(=O)c2cc3n(c2)CCN(C(C)C)C3=O)cc1`, 731 s.
For `COc1ccc(CCC(=O)NCCc2cn(C)c3ncccc23)cc1` the value was 669 s.
On to `O=C(NCCn1nnc2cc(C(=O)N3CCCC3)ccc21)Nc1ccc(Cl)cc1`, for which the RP-LC retention time came to 792 s.
Compound `CC1=C(C(=O)OCCc2ccccc2)C(c2ccc(F)cc2)NC(=O)N1` (centres undefined) had an RP-LC retention time of 862 s.
`COc1ccc(C2Cn3cnc(C(=O)N4CCC(C(=O)NC5CCCCCCC5)CC4)c3CO2)cc1` (centres undefined): the RP-LC retention time came out at 862 s.
In the case of `CCc1ccc(NC(=O)N2CCc3nc(-c4ccccc4)ncc3C2)cc1`, the RP-LC retention time worked out at 1010 s.
As for `CN(C)CCNC(=O)C1CCN(S(=O)(=O)c2ccc3c(c2)sc(=O)n3C)CC1`, the RP-LC retention time amounted to 606 s.
Consider `CSc1ccc(NC(=O)CN2C(=O)C3CCCN3C(=O)c3cc(C)ccc32)cc1` (centres undefined), for which the RP-LC retention time was found to be 785 s.
In the case of `CCCN(C)C(=O)c1c(C)oc2c1CN(C(=O)COC)CC2` it was 613 s; in that of `COc1cc(F)ccc1-c1ccnc2nc(C3CCC3)nn12`, 864 s; in that of `Cc1cc2c(c(=O)n(-c3ccccc3)c(=O)n2CC(=O)Nc2cccc(Br)c2)n1C`, 836 s.
In the case of `Cn1cc(-c2nc(C(=O)Nc3cc(F)ccc3Cl)cs2)c2cccnc21` it was 1260 s; in that of `CCCCC(=O)Nc1ccc2c(c1)nc(CN1CCN(S(C)(=O)=O)CC1)n2CC`, 635 s.
In the case of `CCC(Sc1nnc2c(n1)[nH]c1ccccc12)C(=O)Nc1nc(-c2ccccc2)cs1` (centres undefined) it was 1050 s; in that of `Cc1noc(C)c1-c1ccc(S(=O)(=O)NCCc2ccc(S(N)(=O)=O)cc2)cc1`, 740 s; in that of `COc1ccc(C)cc1NC(=O)Cn1c(=O)c(CCC(=O)NCC(C)C)nc2ccccc21`, 852 s.
On to `CCCn1cc(S(=O)(=O)Nc2ccc(C)c(F)c2)c2cccnc21`, for which the RP-LC retention time came to 921 s.
`O=C(NCC1(c2cccs2)CCOCC1)C(=O)Nc1ccc2c(c1)OCCO2` came in with an RP-LC retention time of 802 s.
With `COc1ccc(NC(=O)NC2CCN(c3ccccc3)C2=O)c(OC)c1` (centres undefined), the RP-LC retention time amounted to 761 s.
In turn, `O=C1C(N2CCN(S(=O)(=O)c3ccccc3F)CC2)CCN1Cc1ccccn1` (centres undefined) yielded an RP-LC retention time of 571 s.
In turn, `Cc1ccc(-c2nc3cnccn3c2Nc2ccccc2C)cc1` gave an RP-LC retention time of 969 s.
In the case of `Cn1nc(-c2nc(C3CC3)no2)c2c1CCN(C(=O)c1cccnc1)C2` it was 642 s; in that of `COc1ccc2c(c1)c(CN1CCC(C(=O)NCc3ccccc3Cl)CC1)cn2C`, 699 s.
Consider `CC(=O)c1cccc(NC(=O)CN2C(=O)COc3ccc(C(=O)N(C)C)cc32)c1`, for which the RP-LC retention time amounted to 651 s.
On to `CC(C)CCN1CCC(N2CCN(S(=O)(=O)c3ccc(C(F)(F)F)cc3)CC2)C1=O` (centres undefined), for which the RP-LC retention time turned out to be 794 s.
In the case of `O=C(NC1CCN(Cc2ccccc2)CC1)C1CCCN(c2ncc(-c3ccccc3)cn2)C1` (centres undefined) it was 720 s; in that of `CCn1cc(-c2nc(CC(=O)N3CCN(c4ccc(F)cc4)CC3)cs2)c2cccnc21`, 921 s; in that of `CC(CCNC(=O)CN1C(=O)C2CCCCN2c2ccc(C(=O)N3CCCC3)cc21)N1CCCC1` (centres undefined), 614 s.
`CCN1C(=O)COc2ccc(-c3noc(-c4cccc(NC(C)=O)c4)n3)cc21` had an RP-LC retention time of 848 s.
In the case of `CCN(CC)CCCNC(=O)c1cc2n(n1)CC(C)(C(=O)NCc1ccccc1)N(C)C2=O` (centres undefined) it was 581 s.
In the case of `Cc1nc2cc(N3CCCC(C(=O)NC4CCCCC4)C3)cnc2nc1C` (centres undefined) it was 723 s.
In the case of `CCOc1ccc(NC(=O)NCc2nc(-c3ccc(OCC)cc3)oc2C)cc1` it was 656 s.
Compound `O=C(NCCCN1CCCC1=O)c1ccc2nc(CCc3ccccc3)oc2c1` registered an RP-LC retention time of 754 s.
For `CCCNc1cc(N2CCC(CCC(=O)O)CC2)ncn1` the value was 600 s; for `Cc1cc(F)ccc1NC(=O)c1n[nH]nc1Nc1ccc(F)cc1`, 923 s; for `Cn1c(=O)c2cc(C(=O)Nc3ccccc3Cl)cnc2n(-c2ccccc2)c1=O`, 882 s.
In the case of `CCC(=O)N1CCc2cc(C(=O)NC3CCCC3)ccc21` it was 744 s; in that of `O=C(Nc1ccc(F)cc1F)Nc1nccn(-c2cccc(F)c2)c1=O`, 971 s.
In turn, `Cc1nc(C)c(C(=O)N2CC(Oc3ccc(-c4nc(-c5ccccc5)no4)cc3)C2)s1` showed an RP-LC retention time of 1130 s.
For `O=S(=O)(NCCc1c[nH]c2ncccc12)c1ccc(Br)cc1` the value was 684 s; for `CSc1cccc(NC(=O)Cn2cccc(-c3nc(-c4ccccc4)no3)c2=O)c1`, 911 s.
In the case of `NC(=O)C1(c2cccc(C(F)(F)F)c2)CC1` it was 764 s; in that of `CCCOc1ccc(CNC(=O)C2CCc3nc(N4CCCCC4)ncc3C2)cc1` (centres undefined), 850 s; in that of `CCCn1cc(C(=O)NCC2CCCO2)c2cccnc21` (centres undefined), 669 s.
`Cc1ccc(CNC(=O)Cn2cnc3nc(N4CCCC(C(=O)NC5CC5)C4)sc3c2=O)cc1` (centres undefined) had an RP-LC retention time of 743 s.
In the case of `Cn1nc(-c2nnc(-c3ccc(F)cc3)o2)c2c1CCN(S(=O)(=O)c1cc(F)ccc1F)C2` it was 958 s; in that of `CNC(=O)C1CCCN(c2nc3ncn(CC(=O)NCc4cccc(OC)c4)c(=O)c3s2)C1` (centres undefined), 621 s; in that of `CC(C)(C)C1CCc2[nH]nc(C(=O)NC3CC3)c2C1` (centres undefined), 843 s.
For `Cc1cccc(C)c1Nc1c(-c2ccccc2)nc2cnccn12` the value was 865 s; for `CCCCN(CC)C(=O)Cn1c(=O)c2cnc(-c3ccccc3)nc2n(C)c1=O`, 1070 s; for `CCn1nccc1C(=O)N1CCCC1c1ccc(C)cc1` (centres undefined), 890 s.

The record behind these values is the METLIN SMRT retention time set (Domingo-Almenara et al. 2019).
